US8377667B2, “Microorganisms for the production of 1,4-butanediol, 4-hydroxybutanal, 4-hydroxybutyryl-CoA, putrescine and related compounds, and methods related thereto” (Genomatica, Inc., priority 2009, dated 2013)

T1: BK (Clostridium acetobutylicum, UniProt Q45829)
T1 construct: made in house; host or cells: E. coli, crude cell extract (pZA33-0020-0021)
T1 sequence (Q45829 1-355): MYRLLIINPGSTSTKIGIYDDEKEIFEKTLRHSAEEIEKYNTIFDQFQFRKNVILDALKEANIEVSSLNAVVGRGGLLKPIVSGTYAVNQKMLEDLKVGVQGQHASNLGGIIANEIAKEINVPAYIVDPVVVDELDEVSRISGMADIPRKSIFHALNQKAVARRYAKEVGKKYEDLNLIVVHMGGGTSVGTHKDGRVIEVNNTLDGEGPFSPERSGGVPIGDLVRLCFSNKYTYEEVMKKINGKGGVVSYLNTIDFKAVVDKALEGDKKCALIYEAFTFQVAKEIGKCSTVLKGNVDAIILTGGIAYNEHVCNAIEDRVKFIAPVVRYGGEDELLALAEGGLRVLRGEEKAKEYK

B1: BK: Butyrate kinase from C. acetobutylicum (gene 0021), native ptb/bk operon expressed in pZA33; cell extract (protein, listed as Clostridium acetobutylicum)
chain: T1 sequence (Q45829 1-355)

Biological target: T1, BK
Assay: Butyrate kinase (BK) enzyme activity, butyrate to butyryl-phosphate
Type: biochemical, C. acetobutylicum
Conditions: extracts from cells containing pZA33-0020-0021
Description: The enzyme activity of PTB is measured in the direction of butyryl-CoA to butyryl-phosphate as described in Cary et al. J. Bacteriol. 170:4613-4618 (1988). It provides inorganic phosphate for the conversion, and follows the increase in free CoA with the reagent 5,5′-dithiobis-(2-nitrobenzoic acid), or DTNB. DTNB rapidly reacts with thiol groups such as free CoA to release the yellow-colored 2-nitro-5-mercaptobenzoic acid (TNB), which absorbs at 412 nm with a molar extinction coefficient of 14,140 M cm^−1. The assay buffer contained 150 mM potassium phosphate at pH 7.4, 0.1 mM DTNB, and 0.2 mM butyryl-CoA, and the reaction was started by addition of 2 to 50 μL cell extract. The enzyme activity of BK is measured in the direction of butyrate to butyryl-phosphate formation at the expense of ATP. The procedure is similar to the assay for acetate kinase previously described Rose et al., J. Biol. Chem. 211:737-756 (1954). However we have found another acetate kinase enzyme assay protocol provided by Sigma to be more useful and sensitive. […] The reaction was started by adding 2 to 50 μL cell extract, and the reaction was monitored based on the decrease in absorbance at 340 nm indicating NADH oxidation. […]

Which “specific activity of BK” value does the source give for B1 here?
Its value is “approximately 65 U/mg”.

System: aminotransferase from Leishmania mexicana
Assay: not given
Conditions: activity considered 100% on tyrosine; cited from earlier work

Which “activity (substrate specificity)” value does the source give for `CC(C)C[C@H](N)C(=O)O` [leucine] here?
The value was 25%.

With `CSCC[C@H](N)C(=O)O` [methionine] as the molecule, how does the “activity (substrate specificity)” value read?
Its value is 25%.

For `N[C@@H](Cc1ccccc1)C(=O)O` [phenylalanine], which “activity (substrate specificity)” value is on record?
Its value is 90%.

For `N[C@@H](Cc1c[nH]c2ccccc12)C(=O)O` [tryptophan], which “activity (substrate specificity)” value is on record?
Its value is 85%.

For `N[C@@H](Cc1ccc(O)cc1)C(=O)O` [tyrosine], which “activity (substrate specificity)” value is on record?
Its value is 100%.
